Laboratory results: publication PMC9842066, “Implantable device actuated by manual button clicks for noninvasive self‐drug administration” (Bioengineering & Translational Medicine, 2022)

Tests used:
[1] = system: STZ-induced diabetic rats; assay: PD studies on insulin and glucagon delivery (plasma glucose); format: in vivo, Wistar rats; settings: hyperglycemic STZ-induced Type 1 diabetic rats (>400 mg dl^−1); 1-U insulin by SC injection or BCD; n = 4 per group
Description: For this experiment, we employed a Type 1 diabetic animal model, streptozotocin (STZ)‐induced diabetic rats.[26], [28] To induce this animal model, Wistar rats were fasted overnight, and then intraperitoneally injected with a STZ solution (60 mg kg^−1) prepared in 0.09 M citrate buffered saline (pH 4.0) to destroy the beta‐cells of the pancreas. Three days after the STZ injection, the plasma glucose level was measured with a glucometer, and the animals with a plasma glucose level > 400 mg dl^−1 were screened for use. Among them, we employed two distinct animal models of hyperglycemia and hypoglycemia, respectively. For a hyperglycemic condition, the animals were used as they were with a blood glucose level of >400 mg dl^−1.[28], [29] For a hypoglycemic condition, the animals were fasted overnight and the ones with a plasma glucose level of <72 mg dl^−1 were screened for use.[30] The hyperglycemic animals were treated with 1‐U insulin by an SC injection or implanted BCD: Inj‐Insulin (n = 4) and BCD‐Insulin (n = 4), respectively. For this, we utilized a commercially available insulin solution (100 U ml^−1; NovoRapid, Novo Nordisk). […] After administration, the plasma glucose level was measured with a glucometer at scheduled times.

[2] = Stability assessment of exenatide and insulin in the BCD
Excerpt: Supplementary Figure 5. […] To obtain the CD spectra, the solution was placed in a 1-mm path length cuvette (Chirascan plus, Applied Photophysics, Surrey, UK) and scanned over range of 200-260 nm.

## insulin: commercially available insulin solution (100 U ml^−1; NovoRapid, Novo Nordisk)
[1]
  Change in plasma glucose level after insulin: decrease
[2]; 4 weeks, Figure S5
  Stability during 4-week period in the BCD: well retained
[2]; insulin stored in BCD at 37 °C for 28 days, injected subcutaneously to diabetic animals, n = 3
  Drop of blood glucose level with stored versus fresh insulin: similar
[2]; loaded BCDs stored at 37 °C for 28 days, versus fresh drug solution, n = 3, HPLC and CD 200-260 nm
  Drug content (HPLC) and far-UV CD spectra after incubation in the BCD: did not vary
